Paper PMC10999543, “Identification of kinase modulators as host-directed therapeutics against intracellular methicillin-resistant Staphylococcus aureus” (Frontiers in Cellular and Infection Microbiology, 2024)
Read-outs that look alike come from different tables or passages of the source.

Columns and labels:
intracellular MRSA = type: cell-based, Staphylococcus aureus; details: for %GFP+ rep 1 / z-scoreMRSA+ rep 1: replicate 1; for %GFP+ rep 2 / z-scoreMRSA+ rep 2: replicate 2; for %GFP+ rep 3 / z-scoreMRSA+ rep 3: replicate 3; for z-scoreMRSA+ mean: mean of 3 replicates; for %GFP+ rep 1: test concentration or dose not given here; for %GFP+ rep 2: test concentration or dose not given here; for %GFP+ rep 3: test concentration or dose not given here; for effect: test concentration or dose not given here; for z-scoreMRSA+ mean: test concentration or dose not given here; for z-scoreMRSA+ rep 1: test concentration or dose not given here; for z-scoreMRSA+ rep 2: test concentration or dose not given here; for z-scoreMRSA+ rep 3: test concentration or dose not given here
Summary of the method: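 Values are z-scores: GFP-positive HeLa percentage and event count per well against plate statistics, minus the mean DMSO z-score. Wells deviating two-fold from controls were left out of plate means. Infection was at a mean MOI of 6.8, with an overnight compound exposure.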

HeLa cells = assay: Compound screen by flow cytometry: HeLa cell count as surrogate readout of cell viability (z-scoreHeLa); type: cell-based, human; details: for cell count rep 1 / z-scoreHeLa rep 1: replicate 1; for cell count rep 2 / z-scoreHeLa rep 2: replicate 2; for cell count rep 3 / z-scoreHeLa rep 3: replicate 3; for z-scoreHeLa mean: mean of 3 replicates; for all read-outs here: test concentration or dose not given here
Summary of the method: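 The viability surrogate was the count of fixed HeLa cells by flow cytometry, converted to z-scores against DMSO controls with values deviating two-fold excluded. Before counting, cells had been infected with MRSA for 1 h and cleared of extracellular bacteria with gentamicin. They were then exposed overnight to kinase inhibitors in triplicate.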

[1] = PKIS compound screen raw data, MRSA-infected HeLa cells
[2] = PKIS compound screen, MRSA-infected HeLa cells
[3] = PKIS compound screen, Yes/No call (effect without cell death)
[4] = PKIS compound screen, Yes/No call on z-scoreMRSA+
[5] = PKIS compound screen raw data, HeLa cell count
[6] = PKIS compound screen, HeLa cell count
[7] = PKIS compound screen, Yes/No call on z-scoreHeLa
[8] = PKIS compounds raw data, MRSA-infected HeLa cells
[9] = Yes/No: effect without cell death
[10] = compound screen, MRSA-infected HeLa cells
[11] = PKIS compounds raw data, HeLa cell count
[12] = compound screen, HeLa cell count
[13] = PKIS compound screen, Yes/No call

| Structure (SMILES) | %GFP+ rep 1 (intracellular MRSA; [1]) [%] | %GFP+ rep 2 (intracellular MRSA; [1]) [%] | %GFP+ rep 3 (intracellular MRSA; [1]) [%] | z-scoreMRSA+ mean (intracellular MRSA; [2]) | z-scoreMRSA+ rep 1 (intracellular MRSA; [2]) | hit (intracellular MRSA; [3]) | cell count rep 1 (HeLa cells; [5]) | cell count rep 2 (HeLa cells; [5]) | cell count rep 3 (HeLa cells; [5]) | effect (intracellular MRSA; Yes/No call from z-scoreMRSA+) | hit (intracellular MRSA; [9]) | z-scoreMRSA+ mean (intracellular MRSA; [10]) | z-scoreMRSA+ rep 1 (intracellular MRSA; [10]) | z-scoreMRSA+ rep 2 (intracellular MRSA; [10]) | z-scoreMRSA+ rep 3 (intracellular MRSA; [10]) | cell death (HeLa cells; Yes/No call from z-scoreHeLa) | z-scoreHeLa mean (HeLa cells; [12]) | z-scoreHeLa rep 1 (HeLa cells; [12]) | z-scoreHeLa rep 2 (HeLa cells; [12]) | z-scoreHeLa rep 3 (HeLa cells; [12]) | also measured |
| --- | --- | --- | --- | --- | --- | --- | --- | --- | --- | --- | --- | --- | --- | --- | --- | --- | --- | --- | --- | --- | --- |
| Cc1ccc(Nc2ccnc(Nc3cccc(C(N)=O)c3)n2)cc1O [GW575808A] | 13.4 | 14.8 | 16.1 | -1.22 | -1.41 | No | 19398 | 38059 | 43165 |  |  |  |  |  |  |  |  |  |  |  | z-scoreMRSA+ rep 2 (intracellular MRSA; [2]): -1.12; z-scoreMRSA+ rep 3 (intracellular MRSA; [2]): -1.12; effect (intracellular MRSA; [4]): No; z-scoreHeLa mean (HeLa cells; [6]): 0.31; z-scoreHeLa rep 1 (HeLa cells; [6]): -0.11; z-scoreHeLa rep 2 (HeLa cells; [6]): 0.61; z-scoreHeLa rep 3 (HeLa cells; [6]): 0.42; cell death (HeLa cells; [7]): No |
| Nc1nc(-c2ccc3c(c2)C(=Cc2cc(Br)c(O)c(Br)c2)C(=O)N3)cs1 [GW407323A] |  |  |  |  |  |  |  |  |  | No | No | 0.14 | 1.03 | 0.0015 | -0.62 | No | 1.06 | 0.80 | 1.20 | 1.18 | %GFP+ rep 1 (intracellular MRSA; [8]): 16.4%; %GFP+ rep 2 (intracellular MRSA; [8]): 13.5%; %GFP+ rep 3 (intracellular MRSA; [8]): 13.8%; cell count rep 1 (HeLa cells; [11]): 5658; cell count rep 2 (HeLa cells; [11]): 5858; cell count rep 3 (HeLa cells; [11]): 9419 |
| Cc1cccc(-c2nc(Nc3ccncc3)c3ccccc3n2)n1 [GW855857X] | 26.0 | 24.5 | 21.6 |  |  |  | 3133 | 3003 | 4517 | No | No | 0.15 | 0.17 | 0.46 | -0.18 | No | -0.78 | -0.88 | -1.00 | -0.46 |  |
| CC(C(=O)NC1CCN(c2ccnc(Nc3ccc(F)cc3)n2)C1)c1ccc(Cl)cc1 (stereo not drawn) [GSK1379713A] | 27.3 | 23.1 | 24.4 |  |  |  | 6297 | 5528 | 7616 | No | No | 0.42 | 0.47 | 0.12 | 0.66 | No | 1.28 | 1.40 | 0.94 | 1.50 |  |
| Cl.Cl.Cl.Fc1ccc(-c2ncn(C3CCNCC3)c2-c2ccnc(Nc3ccccc3)n2)cc1 [SB-238039-R] |  |  |  |  |  |  |  |  |  | Yes | Yes | -2.31 | -1.86 | -2.29 | -2.78 | No | -2.33 | -2.76 | -2.40 | -1.81 | %GFP+ rep 1 (intracellular MRSA; [8]): 7.4%; %GFP+ rep 2 (intracellular MRSA; [8]): 6.7%; %GFP+ rep 3 (intracellular MRSA; [8]): 6.5%; cell count rep 1 (HeLa cells; [11]): 1720; cell count rep 2 (HeLa cells; [11]): 1088; cell count rep 3 (HeLa cells; [11]): 3178 |
| Fc1cc(Cl)ccc1Nc1ccnc2cc(-c3ccc(CN4CCSCC4)o3)ccc12 [GW560106X] | 16.0 | 19.0 | 19.0 | -0.23 | -0.59 | No | 31348 | 29129 | 34674 |  |  |  |  |  |  |  |  |  |  |  | z-scoreMRSA+ rep 2 (intracellular MRSA; [2]): 0.14; z-scoreMRSA+ rep 3 (intracellular MRSA; [2]): -0.24; effect (intracellular MRSA; [4]): No; z-scoreHeLa mean (HeLa cells; [6]): -0.095; z-scoreHeLa rep 1 (HeLa cells; [6]): 1.70; z-scoreHeLa rep 2 (HeLa cells; [6]): -1.06; z-scoreHeLa rep 3 (HeLa cells; [6]): -0.93; cell death (HeLa cells; [7]): No |
| COC(=O)Nc1nc2ccc(Oc3ccc(NC(=O)Nc4cc(C(F)(F)F)ccc4F)cc3)cc2n1C [GW692089A] | 16.9 | 18.4 | 19.6 | -0.41 | -0.50 | No | 28483 | 25969 | 19864 |  |  |  |  |  |  |  |  |  |  |  | z-scoreMRSA+ rep 2 (intracellular MRSA; [2]): -0.28; z-scoreMRSA+ rep 3 (intracellular MRSA; [2]): -0.45; effect (intracellular MRSA; [4]): No; z-scoreHeLa mean (HeLa cells; [6]): 0.00395; z-scoreHeLa rep 1 (HeLa cells; [6]): -0.29; z-scoreHeLa rep 2 (HeLa cells; [6]): 0.12; z-scoreHeLa rep 3 (HeLa cells; [6]): 0.18; cell death (HeLa cells; [7]): No |
| Nc1ncnc2occ(-c3ccc(NC(=O)Nc4cc(C(F)(F)F)ccc4F)cc3)c12 [GW770249X] |  |  |  |  |  |  |  |  |  | No | No | -0.92 | -0.79 | -0.67 | -1.30 | No | -1.83 | -2.21 | -1.53 | -1.77 | %GFP+ rep 1 (intracellular MRSA; [8]): 10.7%; %GFP+ rep 2 (intracellular MRSA; [8]): 11.5%; %GFP+ rep 3 (intracellular MRSA; [8]): 11.5%; cell count rep 1 (HeLa cells; [11]): 2336; cell count rep 2 (HeLa cells; [11]): 2249; cell count rep 3 (HeLa cells; [11]): 3259 |
| CCS(=O)(=O)c1ccc(OC)c(Nc2ncc(-c3cccc(-c4ccccc4F)c3)o2)c1 [GW678313X] | 14.1 | 12.8 | 13.1 | -1.65 | -1.19 | No | 18271 | 31542 | 48427 |  |  |  |  |  |  |  |  |  |  |  | z-scoreMRSA+ rep 2 (intracellular MRSA; [2]): -1.72; z-scoreMRSA+ rep 3 (intracellular MRSA; [2]): -2.04; effect (intracellular MRSA; [4]): No; z-scoreHeLa mean (HeLa cells; [6]): 0.12; z-scoreHeLa rep 1 (HeLa cells; [6]): -0.28; z-scoreHeLa rep 2 (HeLa cells; [6]): -0.61; z-scoreHeLa rep 3 (HeLa cells; [6]): 1.26; cell death (HeLa cells; [7]): No |
| CS(=O)(=O)Cc1ccc(Nc2nccc(-c3c(-c4cccc(NC(=O)C5CCCCC5)c4)nn4ncccc34)n2)cc1 [GSK350559A] | 15.3 | 15.9 | 16.3 |  |  |  | 4919 | 4109 | 4941 | No | No | -1.91 | -2.32 | -1.63 | -1.77 | No | 0.0244 | 0.41 | -0.15 | -0.19 |  |
| O=C(Nc1ccccc1F)NC1CCN(c2ccnc(Nc3ccc(F)cc3)n2)CC1 [GSK1379800A] |  |  |  |  |  | No |  |  |  |  |  |  |  |  |  |  |  |  |  |  | effect (intracellular MRSA; [13]): No; z-scoreMRSA+ mean (intracellular MRSA; PKIS compound screen): 0.29; z-scoreMRSA+ rep 1 (intracellular MRSA; PKIS compound screen): -0.13; z-scoreMRSA+ rep 2 (intracellular MRSA; PKIS compound screen): 0.53; z-scoreMRSA+ rep 3 (intracellular MRSA; PKIS compound screen): 0.47; %GFP+ rep 1 (intracellular MRSA; [8]): 26.4%; %GFP+ rep 2 (intracellular MRSA; [8]): 28.8%; %GFP+ rep 3 (intracellular MRSA; [8]): 29.8%; cell death (HeLa cells; [13]): No; z-scoreHeLa mean (HeLa cells; PKIS compound screen): 0.79; z-scoreHeLa rep 1 (HeLa cells; PKIS compound screen): 0.80; z-scoreHeLa rep 2 (HeLa cells; PKIS compound screen): 0.32; z-scoreHeLa rep 3 (HeLa cells; PKIS compound screen): 1.24; cell count rep 1 (HeLa cells; [11]): 7378; cell count rep 2 (HeLa cells; [11]): 6492; cell count rep 3 (HeLa cells; [11]): 7551 |
| Cc1cc(N2Cc3ccccc3C2)nc(Nc2ccc(S(=O)(=O)N3CCOCC3)cc2)n1 [GSK1669917A] | 24.7 | 22.0 | 22.0 |  |  |  | 5559 | 4564 | 5979 | No | No | -0.11 | -0.13 | -0.15 | -0.06 | No | 0.51 | 0.87 | 0.20 | 0.47 |  |
